Values after ≈ are worked out from the molar mass of the structure shown.
What was measured:
Human C5 [1] = target: T1, Human C5 (Homo sapiens, UniProt P01031); assay: Red blood cell (RBC) hemolysis assay, luminescent (Example 28, Table 32); assay type: cell-based; details: sheep EA cells, 1.5% C5-depleted human serum, 0.5 nM human C5, 1 hour at 37° C., luminescence (Table 32)
T1 construct: purchased Complement Technology

[2] = Permeability assay, unidirectional transport, Papp (Example 30, Table 34); assay type: in vitro ADME, canine; details: dog, pH 7.4; MDCK-WT cell monolayers, A-to-B, 3 μM test compound, 37° C., duplicate determinations
Protocol: Permeability assays were carried out to provide a preliminary indication of suitability for oral dosing and compound permeability across the blood brain barrier. Unidirectional and bidirectional compound transport across Madin Darby canine kidney (MDCK) cell monolayers was assessed. For unidirectional transport assessment, transport across MDCK wild type (MDCK-WT) cell monolayers was assessed. For bidirectional transport, transport across MDCK-MDR1 cell monolayers was assessed. MDCK-MDR1 cells express the MDR1 gene encoding the P-glycoprotein (P-gp) efflux protein.
MDCK-WT and MDCK-MDR1 cells were plated onto permeable polycarbonate supports in 12-well Costar transwell plates and allowed to grow and differentiate for 3 days. After 3 days in culture, the culture medium (DMEM supplemented with 10% FBS) was removed from both sides of the transwell inserts and cells were rinsed with warm HBSS. After the rinse step, the chambers were filled with warm transport buffer (HBSS containing 10 mM HEPES, 0.25% BSA, pH 7.4) and the plates were pre-incubated at 37° C. for 30 minutes prior to TEER (Trans Epithelial Electric Resistance) measurements.
The buffer in the donor chamber (apical side for A-to-B assay, basolateral side for B-to-A assay) was removed and replaced with the working solution (3 μM test compound and 10 μM for control compounds in transport buffer). The plates were then placed at 37° C. under light agitation. At designated time points (30, 60 and 90 min), an aliquot of transport buffer from the receiver chamber was removed and replenished with fresh transport buffer. Samples were quenched with ice-cold ACN containing internal standard and then centrifuged to pellet protein. Resulting supernatants were further diluted with 50/50 ACN/H2O (Atenolol diluted in just water) and submitted for LC-MS/MS analysis. Apparent permeability (Pap) values were calculated from duplicate determinations. Atenolol and propranolol were tested as low and […] permeability references.
Papp values indicate extent of compound permeation across monolayers.

[3] = Kinetic solubility in PBS pH 7.4, HPLC-UV (Example 21, Table 27); assay type: physicochemical; details: phosphate buffered saline, aqueous buffer, kinetic from dmso stock, 0.5 M PBS, shaken minimum 24 h at approximately 25° C., HPLC-UV 270 nm
Procedure, shortened: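 Supernatant measured by HPLC-UV (270 nm) against a DMSO calibration curve of 15.6–500.0 μM after filtration. Triplicate samples were made from 10 mM DMSO stock in 0.05 M phosphate buffer pH 7.4 (5% DMSO) and shaken at least 24 h at about 25 °C.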

[4] = target: T2, human C5 complement protein (Homo sapiens, UniProt P01031); assay: Surface plasmon resonance (SPR), immobilized human C5, 37° C. (Example 18, Table 24); assay type: binding; details: lowest value obtained where a range of concentrations was analyzed
[5] = target: T2, human C5 complement protein; assay: Surface plasmon resonance (SPR), immobilized human C5, 37° C. (Example 27, Table 31); assay type: binding; details: lowest value obtained where a range of concentrations was analyzed (Table 31)
Human C5 [6] = target: T1, Human C5; assay: Red blood cell (RBC) hemolysis assay, luminescent (Example 13, Table 22); assay type: cell-based; details: sheep EA cells, […] C5-depleted human serum, 0.5 nM human C5, 1 hour 37° C., luminescence
Excerpt: Compound CU0136 is a racemic mixture of Compound CU0186 and CU0187. Numbers in parenthesis following compound numbers indicate alternate enantiomers (as distinguished by retention time during chromatographical separation).

T2 sequence (P01031 19-1676): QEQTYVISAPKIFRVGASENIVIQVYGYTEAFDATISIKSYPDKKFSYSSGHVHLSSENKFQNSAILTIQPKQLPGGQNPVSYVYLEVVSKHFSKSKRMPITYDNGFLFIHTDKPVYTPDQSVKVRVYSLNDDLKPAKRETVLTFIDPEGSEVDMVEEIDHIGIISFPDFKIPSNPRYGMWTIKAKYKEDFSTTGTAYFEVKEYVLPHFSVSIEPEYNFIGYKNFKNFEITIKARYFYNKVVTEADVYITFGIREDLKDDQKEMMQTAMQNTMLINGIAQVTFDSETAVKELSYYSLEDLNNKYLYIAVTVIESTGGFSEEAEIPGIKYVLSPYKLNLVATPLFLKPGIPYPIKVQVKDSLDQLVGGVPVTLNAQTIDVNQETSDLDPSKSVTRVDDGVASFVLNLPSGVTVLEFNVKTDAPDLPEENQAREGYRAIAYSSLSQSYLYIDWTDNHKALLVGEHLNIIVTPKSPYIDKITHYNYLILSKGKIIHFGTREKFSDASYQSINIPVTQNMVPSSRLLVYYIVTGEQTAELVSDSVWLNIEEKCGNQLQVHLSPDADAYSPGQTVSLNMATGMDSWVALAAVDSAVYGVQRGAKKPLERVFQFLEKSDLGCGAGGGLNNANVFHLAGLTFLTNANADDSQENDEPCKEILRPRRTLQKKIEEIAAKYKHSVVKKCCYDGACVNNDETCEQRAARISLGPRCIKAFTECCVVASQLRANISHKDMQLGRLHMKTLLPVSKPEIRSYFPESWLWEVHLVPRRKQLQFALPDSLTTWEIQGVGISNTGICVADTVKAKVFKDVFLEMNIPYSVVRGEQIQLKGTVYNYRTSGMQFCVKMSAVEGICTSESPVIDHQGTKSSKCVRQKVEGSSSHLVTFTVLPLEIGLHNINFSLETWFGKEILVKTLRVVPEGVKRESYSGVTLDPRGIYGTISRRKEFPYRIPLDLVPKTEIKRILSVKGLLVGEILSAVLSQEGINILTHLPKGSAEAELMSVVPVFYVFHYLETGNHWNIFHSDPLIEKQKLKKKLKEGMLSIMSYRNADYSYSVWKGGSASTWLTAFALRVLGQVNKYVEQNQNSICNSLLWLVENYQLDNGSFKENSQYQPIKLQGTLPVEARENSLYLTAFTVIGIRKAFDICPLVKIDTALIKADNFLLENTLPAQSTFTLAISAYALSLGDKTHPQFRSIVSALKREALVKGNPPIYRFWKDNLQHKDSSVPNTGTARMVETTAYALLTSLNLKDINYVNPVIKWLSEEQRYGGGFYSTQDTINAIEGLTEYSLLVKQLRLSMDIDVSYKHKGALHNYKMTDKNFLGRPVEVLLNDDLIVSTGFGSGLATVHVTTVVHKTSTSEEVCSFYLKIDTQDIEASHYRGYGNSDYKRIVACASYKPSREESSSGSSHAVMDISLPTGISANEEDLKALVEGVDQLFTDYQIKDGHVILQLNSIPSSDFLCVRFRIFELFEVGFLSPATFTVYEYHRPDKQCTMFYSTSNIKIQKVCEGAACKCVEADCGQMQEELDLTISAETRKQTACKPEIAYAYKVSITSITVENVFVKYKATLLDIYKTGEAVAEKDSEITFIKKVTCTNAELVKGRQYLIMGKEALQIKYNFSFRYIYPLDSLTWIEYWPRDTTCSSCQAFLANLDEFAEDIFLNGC
T1 sequence (P01031 19-1676): as above

Papp A→B at 3 μM [2] [×10⁻⁶ cm/s]	solubility kinetic [3] [µM]	Kd [4] [nM]	Kd [5] [nM]	Compound	IC50 (Human C5 [1]) [nM]	IC50 (Human C5 [6]) [nM]
12.6	–	–	–	CCCCCOc1cc(N2CC[C@H](C)N(Cc3ccnc4c3c(Cl)cn4CC(=O)N3CC(N4CCOCC4)C3)C2=O)ccc1OC [SC0117]	1.4	–
14.3	426 (≈ 245 µg/mL)	–	–	COc1ccc(N2CC[C@H](C)N(Cc3cccc4c3ccn4CC(=O)N3CCOCC3)C2=O)cc1OCCCC1CC1 [SC0164]	2.9	–
16.8	< 10	0.052	–	CCCCCOc1cc(N2CCCN(Cc3ccnc4c3c(Cl)cn4CC(=O)N3CCOCC3)C2=O)ccc1OC [CU0526]	–	–
9.6	< 10	–	–	CCCCCOc1cc(N2CCCN(Cc3ccnc4c3c(Cl)cn4C3CCOCC3)C2=O)ccc1OC [CU0513]	–	–
–	399 (≈ 247 µg/mL)	–	0.08	CCCCCOc1cc(N2CC[C@H](C)N(Cc3cccc4c3c(C)cn4CC(=O)N(C)C3CCN(CC)C3)C2=O)ccc1OC (some centres unmarked) [SC0105]	1.1	–
18.2	–	–	–	COc1cc(Cc2ccncn2)ccc1CN1C(=O)N(c2ccc(OC)c(OCCCC3CC3)c2)CC[C@@H]1C [SC0102]	0.9	–
–	65 (≈ 36.9 µg/mL)	–	1.21	COc1ccc(N2CC[C@H](C)N(Cc3ccnc4c3c(Cl)cn4CC(=O)N(C)C)C2=O)cc1OCCCC1CC1 [SC0119]	1.4	–
–	–	–	0.88	COc1cc(CC(N)=O)ccc1CN1CC(C)CN(c2ccc(OC)c(OCCCC3CC3)c2)C1=O (centres unmarked) [SC0179]	4.9	–
9.9	–	–	–	CCCCCOc1cc(N2CC[C@H](C)N(Cc3ccnc4c3c(Cl)cn4CC(=O)N3CC(N(C)C)C3)C2=O)ccc1OC [SC0155]	2.6	–
1.7	294 (≈ 189 µg/mL)	0.056	–	CCCCCOc1cc(N2CCCN(Cc3ccnc4c3c(Cl)cn4CC(=O)N3CCO[C@H](CN(C)C)C3)C2=O)ccc1OC [CU0533]	–	–
2.5	–	–	–	CCCCCOc1cc(N2CC[C@H](C)N(Cc3ccnc4c3c(Cl)cn4CC(=O)N3CC(C)(O)C3)C2=O)ccc1OC [SC0111]	1.3	–
1.1	47 (≈ 26.8 µg/mL)	0.82	–	CCCCCOc1cc(N2CCCN(Cc3ccnc4c3c(Cl)cn4CC(=O)N3CC(O)C3)C2=O)ccc1OC [CU0518]	–	–
2.4	479 (≈ 286 µg/mL)	–	–	CCCCCOc1cc(N2CCCN(Cc3ccc(CC(=O)N4CCOC(CN(C)C)C4)cc3OC)C2=O)ccc1OC (racemic) [CU0136]	–	12.5
3.9	413 (≈ 252 µg/mL)	–	–	CCCCCOc1cc(N2CCCN(Cc3ccnc4c3c(Cl)cn4CC(=O)N3CC[C@H](N(C)C)C3)C2=O)ccc1OC [CU0521]	–	–
–	–	–	0.79	CCCCCOc1cc(N2CC[C@H](C)N(Cc3cccc4c3ccn4CC(=O)N(C)CC#N)C2=O)ccc1OC [SC0168]	3.3	–
0.7	486 (≈ 317 µg/mL)	–	–	COc1ccc(N2CCCN(Cc3ccnc4c3c(Cl)cn4CC(=O)N3CCOC(CN(C)C)C3)C2=O)cc1OCCCC1CC1 (centres unmarked) [CU0523]	–	–
3	–	–	–	CCN1CC[C@@H](N(C)C(=O)Cc2ccc(CN3C(=O)N(c4ccc(OC)c(OCCCC5CC5)c4)CC[C@@H]3C)c(OC)c2)C1 [SC0144]	2.1	–
4.8	–	–	–	COc1cc(CC(=O)N[C@H]2CN(C)C[C@H]2F)ccc1CN1C(=O)N(c2ccc(OC)c(OCCCC3CC3)c2)CC[C@@H]1C [SC0123]	1.5	–
16.6	310 (≈ 171 µg/mL)	0.47	–	COc1cc(CC(=O)N2CCOCC2)ccc1CN1CCCN(c2ccc(OC)c(OCCCC3CC3)c2)C1=O [CU0511]	–	–
21.7	141 (≈ 78.4 µg/mL)	–	–	CCCCCOc1cc(N2CC[C@H](C)N(Cc3ccnc4c3c(Cl)cn4CC(=O)N(C)C)C2=O)ccc1OC [SC0108]	–	–
–	–	–	1.85	CCCCCOc1cc(N2CC(C)CN(Cc3ccc(CC(=O)N4CCCOCC4)cc3OC)C2=O)ccc1OC (centres unmarked) [SC0186]	5.8	–
–	–	–	2.8	CCCCCOc1cc(N2CC(CO)CN(Cc3ccc(CC(=O)N4CCCOCC4)cc3OC)C2=O)ccc1OC (centres unmarked) [SC0190]	7.1	–

Papp A→B at 3 μM [2] [×10⁻⁶ cm/s]	solubility kinetic [3] [µM]	Kd [4] [nM]	Kd [5] [nM]	Compound	IC50 (Human C5 [1]) [nM]	IC50 (Human C5 [6]) [nM]
1.3	348 (≈ 228 µg/mL)	–	–	CCCCCOc1cc(N2CC[C@H](C)N(Cc3ccnc4c3c(Cl)cn4CC(=O)N3CCOC(CN(C)C)C3)C2=O)ccc1OC (some centres unmarked) [SC0156]	2.6	–
–	–	–	0.4	CCCCCOc1cc(N2CC(C)CN(Cc3ccc(CNC(=O)c4cnco4)cc3OC)C2=O)ccc1OC (centres unmarked) [SC0159]	2.7	–
3.9	366 (≈ 224 µg/mL)	–	–	CCCCCOc1cc(N2CCCN(Cc3ccnc4c3c(Cl)cn4CC(=O)N3CC[C@@H](N(C)C)C3)C2=O)ccc1OC [CU0520]	–	–
–	< 10	0.118	–	CCCCCOc1cc(N2CCCN(Cc3ccnc4c3c(Cl)cn4CC(=O)NC3(C)COC3)C2=O)ccc1OC [CU0567]	–	–
–	190 (≈ 96.8 µg/mL)	0.533	–	COc1cc(CNC(C)=O)ccc1CN1CCCN(c2ccc(OC)c(OCCCCC3CC3)c2)C1=O [CU0613]	–	–
0.7	–	–	–	CCCCCOc1cc(N2CC[C@H](C)N(Cc3ccnc4c3c(Cl)cn4CC(=O)N[C@H]3CCN(C)C3)C2=O)ccc1OC [SC0147]	2.2	–
2	356 (≈ 221 µg/mL)	–	–	CCCCCOc1cc(N2CC[C@H](C)N(Cc3cccc4c3ccn4CC(=O)N3CCO[C@@H](CN(C)C)C3)C2=O)ccc1OC [SC0171]	3.7	–
–	10 (≈ 5.44 µg/mL)	1.2	–	CCCCCOc1cc(N2CCCN(Cc3ccnc4c3c(Cl)cn4CC(=O)NOC)C2=O)ccc1OC [CU0500]	–	–
0.1	252 (≈ 142 µg/mL)	–	–	COc1cc(CC(=O)N[C@H]2CCNC2)ccc1CN1C(=O)N(c2ccc(OC)c(OCCCC3CC3)c2)CC[C@@H]1C [SC0114]	1.3	–
4.7	–	–	–	COc1cc(CC(=O)N2CC[C@H](N(C)C)C2)ccc1CN1C(=O)N(c2ccc(OC)c(OCCCC3CC3)c2)CC[C@@H]1C [SC0101]	0.9	–
–	480 (≈ 271 µg/mL)	0.498	–	COc1cc(CC(=O)N2CCNC(=O)C2)ccc1CN1CCCN(c2ccc(OC)c(OCCCC3CC3)c2)C1=O [CU0562]	–	–
–	455 (≈ 277 µg/mL)	0.031	–	COc1cc(CC(=O)N2CCOC(CN(C)C)C2)ccc1CN1CCCN(c2ccc(OC)c(OCCCC3CC3)c2)C1=O (centres unmarked) [CU0550]	–	–
–	–	–	0.77	CCCCCOc1cc(N2CC(C)CN(Cc3ccc(CNC(=O)c4cocn4)cc3OC)C2=O)ccc1OC (centres unmarked) [SC0170]	3.7	–
1.8	–	–	–	CCCCCOc1cc(N2CC[C@H](C)N(Cc3cccc4c3c(Cl)cn4CC3=NCCN3C)C2=O)ccc1OC [SC0169]	3.5	–
17.4	85 (≈ 50.8 µg/mL)	0.363	–	CCCCCOc1cc(N2CCCN(Cc3ccnc4c3c(Cl)cn4CC(=O)N3CC[C@@H](OC)C3)C2=O)ccc1OC [CU0534]	–	–
–	50 (≈ 29.1 µg/mL)	0.057	–	CCCCCOc1cc(N2CCCN(Cc3ccnc4c3c(Cl)cn4CC(=O)N(C)CCC#N)C2=O)ccc1OC [CU0528]	–	–
2.2	266 (≈ 166 µg/mL)	–	–	COc1cc(CC(=O)N2CCO[C@H](CN(C)C)C2)ccc1CN1C(=O)N(c2ccc(OC)c(OCCCC3CC3)c2)CC[C@@H]1C [SC0134]	1.8	–
3.5	–	–	–	CCN1CC[C@H](N(C)C(=O)Cc2ccc(CN3C(=O)N(c4ccc(OC)c(OCCCC5CC5)c4)CC[C@@H]3C)c(OC)c2)C1 [SC0149]	2.2	–
1.3	309 (≈ 192 µg/mL)	–	–	CCCCCOc1cc(N2CC[C@H](C)N(Cc3cccc4c3ccn4CC(=O)N3CCO[C@H](CN(C)C)C3)C2=O)ccc1OC [SC0177]	4.7	–
–	–	–	0.09	COc1ccc(N2CC[C@H](C)N(Cc3cccc4c3c(Cl)cn4CC(=O)N(C)C)C2=O)cc1OCCCC1CCC1 [SC0125]	1.6	–
2.6	486 (≈ 303 µg/mL)	–	–	COc1cc(CC(=O)N2CCO[C@@H](CN(C)C)C2)ccc1CN1C(=O)N(c2ccc(OC)c(OCCCC3CC3)c2)CC[C@@H]1C [SC0146]	2.1	–
